Where a SMILES comes first, the peptide text is derived from it. [ ]: non-standard residue; d: D form. The star is where a group is joined. X1 = CC(C)CCC[C@@H](C)[C@H]1CC[C@H]2[C@@H]3CC[C@H]4C[C@@H](O*)CC[C@]4(C)[C@H]3CC[C@]12C; PEG4 = NCCOCCOCCOCCOCCC(=O)O; PEG3 = NCCOCCOCCOCCC(=O)O

The text below walks through data of patent US11324832B2, “Tripartite modulators of endosomal G protein-coupled receptors” (Endosome Therapeutics, Inc., priority 2015, dated 2022).

Data set [1] concerns NK1R-positive neurons in lamina I of the dorsal horn. In words: Cell-attached patch clamp recordings in rat spinal cord slices. It is filed as cell-based. On the procedure: To evaluate whether NK1R endosomal signaling mediates this sustained activation, cell-attached patch clamp recordings were made from NKiR-positive neurons in lamina I of the dorsal horn in slices of rat spinal cord. […] These findings support a role for NK1R endocytosis in persistent neuronal excitation.
Parasagittal slices (340-400 μm) were prepared using a vibratome from the lumbar region of the rat spinal cord in ice-cold sucrose-based artificial CSF (sACSF) (mM: 100 sucrose, 63 NaCl, 2.5 KCl, 1.2 NaH2PO4, 1.2 MgCl2, 25 glucose, 25 NaHCO3; 95% O2/5% CO2). Slices were transferred to N-Methyl-D-Glucamine (NMDG)-based recovery ACSF (rACSF) (mM: 93 NMDG, 93 HCl, 2.5 KCl, 1.2 NaH2PO4, 30 NaHCO3, 20 HEPES, 25 glucose, 5 Na ascorbate, 2 thiourea, 3 Na pyruvate, 10 MgSO4, 0.5 CaCl2; 95% O2/5% CO2, 15 min, 34° C.). Slices were transferred to normal ACSF (mM: 125 NaCl, 2.5 KCl, 1.25 NaH2PO4, 1.2 MgCl2, 2.5 CaCl2, 25 glucose, 11 NaHCO3; 95% O2/5% CO2) containing 10 μM MK-801 (45 min, 34° C.), then maintained at RT.
Slices of rat spinal cord were transferred to a recording chamber and superfused with normal ACSF (2 ml·min^−1, 36° C.). […] PS2 was not soluble in the low concentrations of DMSO required for electrophysiology. Large, NKiR-positive, presumed nociceptive lamina I neurons were visually identified as described (Imlach, W. L., et al., Molecular Pharmacology, 2015, 88, 460-428). Spontaneous currents were recorded in cell-attached configuration (Multiclamp 700B, Molecular Devices, Sunnyvale, Calif.), sampled at 10 kHz, high pass filtered at 1 Hz, and capacitatively coupled action potential events were analyzed using Axograph X, V 1.4.4 (Axograph). Patch electrodes (resistance 2.5-3.5 MQ) contained KMES-based internal solution (mM: 105 KMES, 20 NaCl, 5 HEPES, 10 BAPTA, 1.5 MgCl2, 4 MgATP, 0.4 NaGTP, 0.1% biocytin; 285-295 mosmol·l^−1) to facilitate subsequent recordings of action potential properties in whole-cell configuration. Recordings were made in the presence of CNQX (6-cyano-7-nitroquinoxaline-2,3-dione) (10 μM; AMPA/kainate receptor antagonist), picrotoxin (100 μM; GABAA receptor antagonist), strychnine (0.5 μM; glycine and acetylcholine receptor antagonist), and AP5 ((2R)-amino-5-phosphonovaleric acid; (2R)-amino-5-phosphonopentanoate) (100 μM; NMDA receptor antagonist) to minimize presynaptic influences on action potential properties. […] Recordings were sampled at 10 kHz and filtered with a high pass filter at 1 Hz and firing rate was measured in two-minute interval bins. At the end of each cell-attached recording, whole-cell recordings were made in current-clamp mode to confirm retention of normal action potential firing. Data were only included in the analysis if cells had action potential amplitudes that were ≥50 mV above threshold to ensure viable neurons were included. Cells were filled with biocytin and sections were processed to confirm NK1R expression by immunofluorescence. […] The firing time was determined as the duration of the response to last action potential. To assess synaptic transmission, whole-cell configuration recordings were made under control conditions or after exposure to Dy4 or Dy4 inact; a bipolar stimulating electrode was placed at the dorsal root entry zone, and electrically-evoked excitatory postsynaptic currents recorded as described (Imlach, W. L., et al., Molecular Pharmacology, 2015, 88, 460-428).
(In general: In patch-clamp work, channel activity is measured electrically.)

Data set [2] relates to motor coordination of mice. As to the kind of experiment: Rotarod. It is filed as in vivo, mouse. As to conditions: i.t. 50 μM. On the procedure: Mice were acclimatized by 3 trials on 2 successive days before experiments. Mice were trained to remain on the rotarod for three consecutive periods. On the experimental day, three baseline time trials (cut-off 120 s) were recorded. […] After 30 min, mice were placed on the rotarod with accelerating velocity for up to 120 s. Times were recorded in 3 successive trials, and latency time to fall was determined at 30, 90 and 120 min
On the technique in general: Falling from the rotarod earlier than controls is read as motor impairment.

For data set [3], the target named is NK1R (Rattus norvegicus, UniProt P14600). In words: BRET of NK1R trafficking (KRas-Venus, Rab5a-Venus) in HEK293 cells. It is filed as cell-based. Particulars: inhibitor plus SP. Further details: Full length and truncated 6312 rat HA-NK1R have been described; expressed in transfected cells; host or cells: HEK293 (transient). On the procedure: Bioluminescence Resonance Energy Transfer (BRET) was employed to quantitatively assess the proximity of the NK1R to key regulators of GPCR trafficking (βarrs), and resident proteins of plasma (KRas) and early endosomal (Rab5a) membranes in HEK293 cells (FIG. 1A).
HEK293 cells were transfected with the following cDNAs: 1 μg NK1R-RLuc8 or 1 μg CLR-RLuc8+1 μg Myc-RAMP1+4 μg KRas-Venus, 4 μg Rab5a-Venus, 4 μg βarr1-YFP, or 4 μg βarr2-YFP; or 1 μg NK1R+0.5 μg Gαq-RLuc8+1 μg Gβ1+4 μg Gγ2-Venus; or 1 μg NK1R+0.5 μg Gαq-RLuc8+1 μg Gβ1+1 μg Gγ2+4 μg Rab5a-Venus. After 48 h, cells were equilibrated in Hank's balanced salt solution (HBSS) at 37° C., and incubated with the RLuc substrate coelenterazine h (5 μM, 15 min).
Background: BRET reads energy transfer from a luciferase to a nearby fluorophore.

Data set [4] deals with NK1R. In words: Alexa568-SP trafficking in HEK-NK1R cells. In kind it is cell-based, rat. Particulars: 30 min at 37° C.
In data set [5] the test system is SP-IR and CGRP-IR release. As to the kind of experiment: Neuropeptide release from mouse dorsal spinal cord. Particulars: 30 μM; capsaicin 0.3 μM, 10 min. How it is done: Slices (0.4 mm) of mouse dorsal spinal cord (combined cervical, thoracic, lumbar-sacral segments) were superfused (0.4 ml·min^−1) with Krebs' solution (mM: NaCl 119, NaHCO3 25, KH2PO4 1.2, MgSO4 1.5, CaCl2 2.5, KCl 4.7, D-glucose 11 mM; […], 37° C.) containing 0.1% BSA, 1 μM phosphoramidon and 1 μM captopril. […] Tissues were then superfused with capsaicin (0.3 μM, 10 min) in the presence of inhibitors or controls. Superfusate (10 min collections, 4 ml) was collected before, during and after capsaicin stimulation, and analyzed for SP-IR and CGRP-IR (Bertin Pharma). […] Detection limits of the assays were 2 pg·ml^−1 for SP-IR and 5 pg·ml^−1 for CGRP-IR. Results are expressed as fmol·g^−1·20 min^−1.

Data set [6] in a line: Solubility in low DMSO for electrophysiology. It is filed as physicochemical. Particulars: low concentrations of DMSO required for electrophysiology. On the procedure: Slices of rat spinal cord were transferred to a recording chamber and superfused with normal ACSF (2 ml·min^−1, 36° C.). […] PS2 was not soluble in the low concentrations of DMSO required for electrophysiology. Large, NKiR-positive, presumed nociceptive lamina I neurons were visually identified as described (Imlach, W. L., et al., Molecular Pharmacology, 2015, 88, 460-428). Spontaneous currents were recorded in cell-attached configuration (Multiclamp 700B, Molecular Devices, Sunnyvale, Calif.), sampled at 10 kHz, high pass filtered at 1 Hz, and capacitatively coupled action potential events were analyzed using Axograph X, V 1.4.4 (Axograph). […] Recordings were sampled at 10 kHz and filtered with a high pass filter at 1 Hz and firing rate was measured in two-minute interval bins. […] The firing time was determined as the duration of the response to last action potential. To assess synaptic transmission, whole-cell configuration recordings were made under control conditions or after exposure to Dy4 or Dy4 inact; a bipolar stimulating electrode was placed at the dorsal root entry zone, and electrically-evoked excitatory postsynaptic currents recorded as described (Imlach, W. L., et al., Molecular Pharmacology, 2015, 88, 460-428).

The mark [7] stands for this setting: 1 μM for 60 min, washed, 60 min antagonist-free, then SP.
Where [8] appears, read: 30 μM, preincubated 10 min, SP 1 μM, 2 min.

Sequence of NK1R (Rattus norvegicus, UniProt P14600) (P14600 whole entry, the tested form may be a part): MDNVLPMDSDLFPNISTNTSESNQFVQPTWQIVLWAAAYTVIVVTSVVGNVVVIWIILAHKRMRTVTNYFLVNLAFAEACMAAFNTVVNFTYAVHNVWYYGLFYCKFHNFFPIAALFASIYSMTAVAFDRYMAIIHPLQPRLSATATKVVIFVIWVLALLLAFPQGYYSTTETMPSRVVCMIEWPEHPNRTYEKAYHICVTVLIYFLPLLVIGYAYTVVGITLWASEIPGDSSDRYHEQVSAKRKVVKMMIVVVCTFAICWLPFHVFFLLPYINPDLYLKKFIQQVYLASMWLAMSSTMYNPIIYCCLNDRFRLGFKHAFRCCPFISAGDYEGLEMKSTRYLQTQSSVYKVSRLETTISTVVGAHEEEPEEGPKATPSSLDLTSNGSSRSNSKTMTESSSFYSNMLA

`CC(=O)N[C@@H](CC(=O)O[C@H]1CC[C@@]2(C)[C@@H](CC[C@@H]3[C@@H]2CC[C@]2(C)[C@@H]([C@H](C)CCCC(C)C)CC[C@@H]32)C1)C(=O)NCCOCCOCCOCCOCCC(=O)NCCOCCOCCOCCC(=O)NCCOCCOCCOCCOCCC(=O)N[C@H](CCCNC(=N)N)C(=O)N1CCC[C@H]1C(=O)N[C@@H](CCCCN)C(=O)N1CCC[C@H]1C(=O)N[C@@H](CCC(N)=O)C(=O)N[C@@H](CCC(N)=O)C(=O)N[C@H](Cc1c[nH]c2ccccc12)C(=O)N[C@@H](Cc1ccccc1)C(=O)N[C@H](Cc1c[nH]c2ccccc12)C(=O)N[C@@H](CC(C)C)C(=O)N[C@@H](CC(C)C)C(N)=O` [Compound 1] (Ac-D(X1)[PEG4][PEG3][PEG4][dR]PKPQQ[dW]F[dW]LL-NH2): in data set [1] (setting [7]), the “effect on initial SP-evoked excitation” value is listed as “did not suppress the initial excitation” and the “effect on sustained action potential discharge after SP removal” value is “prevented the action potential discharge”. The “SP-evoked firing rate, response at 2 min” value in data set [1] (1 μM for 60 min, washed, 60 min antagonist-free, then SP, P>0.05) is given as 196.6±81.6 events. 2 min^−1.

As for `O=C(N/N=C/c1cc(O)c(O)cc1O)c1cc2ccccc2cc1O` [Dy4], the “effect on rotarod latency” value in data set [2] is “did not affect”. For the same compound, the “effect on SP-induced NK1R endocytosis (BRET KRas-Venus decrease, Rab5a-Venus increase)” value at NK1R [3] is “blocked”. Further, the “effect on Alexa568-SP redistribution to endosomes” value with NK1R [4] is “caused retention of Alexa568-SP in vesicles close to the plasma membrane”. Further, in data set [1] (setting [8]), the “effect on initial SP-evoked excitation” value is reported as “did not affect the initial excitation” and the “effect on sustained action potential discharge after SP removal” value is “prevented the sustained action potential discharge”. Also, the “effect on glutaminergic primary afferent synaptic transmission and synaptic rundown” value in data set [1] (slices of rat spinal cord) was “did not affect”. In data set [5], the “effect on basal or capsaicin-stimulated release of SP-IR and CGRP-IR” value is listed as “did not affect”.

In the case of `O=C1NC(=NS(=O)(=O)c2cccc3ccccc23)S/C1=C\c1ccc(Br)cc1` [PS2], the solubility result in data set [6] is listed as “not soluble”. For the same compound, in data set [2], the “effect on rotarod latency” value is reported as “did not affect”. In addition, the “effect on SP-induced NK1R endocytosis (BRET KRas-Venus decrease, Rab5a-Venus increase)” value at NK1R [3] was “blocked”. Moreover, the “effect on Alexa568-SP redistribution to endosomes” value in the data set on NK1R [4] is “caused retention of Alexa568-SP in vesicles close to the plasma membrane”. The “effect on basal or capsaicin-stimulated release of SP-IR and CGRP-IR” value in data set [5] is “did not affect”.
